DC50 data for 12 compounds are collected here from US20240158418A1 (C4 Therapeutics, Inc., priority 2021, published 2024).

One may read the DC50 as the concentration giving 50% degradation.

Holding throughout (format): cell-based
Experiment [1] addresses EGFR L858R (Homo sapiens, UniProt P00533, L858R). Briefly: EGFR degradation, Total EGFR (L858R-specific) HTRF, NCI-H3255. Details: NCI-H3255 (harboring EGFR heterozygous L858R mutation); host or cells: NCI-H3255. As to conditions: Table 9A; NCI-H3255 cells, 6 hours, Total EGFR HTRF; read-out: H3255 EGFR DC50. The essentials:
(§1)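 HTRF read-outs: pY1068 phospho-EGFR for IC50; total EGFR (pan-EGFR in A431, L858R-specific in mutant lines) for DC50. Compounds were titrated 11 points, half-log, from 10 μM in duplicate onto cells in 10% FBS RPMI, incubated 6 h at 37°C.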
(Time-resolved FRET reads energy transfer from a long-lived donor to a nearby acceptor.)

In experiment [2] the target is T1, EGFR L858R-T790M-C797S (Homo sapiens, UniProt P00533, C797S/L858R/T790M).
T1 construct: generated using CRISPR technology to introduce the additional C797S mutation by Horizon Discovery; host or cells: NCI-H1975+CS (CRISPR knock-in of C797S)
Briefly: EGFR degradation, Total EGFR (L858R-specific) HTRF, NCI-H1975+CS. As to conditions: Table 9A; NCI-H1975+CS cells, 6 hours, Total EGFR HTRF; read-out: H1975+ CS EGFR DC50. The source says:
NCI-H1975 (harboring EGFR heterozygous L858R-T790M mutations) and NCI-H3255 (harboring EGFR heterozygous L858R mutation) were purchased from ATCC and NCI, respectively. NCI-H1975+CS (harboring EGFR heterozygous L858R-T790M-C797S mutations) was generated using CRISPR technology to introduce the additional C797S mutation by Horizon Discovery. A431 (harboring EGFR wildtype) was purchased from ATCC. RPMI 1640 no-phenol red medium and fetal bovine serum (FBS) were purchased from Gibco (Grand Island, NY, USA). Cell culture flasks and 384-well microplates were acquired from VWR (Radnor, PA, USA). Phosphorylated (pY1068) EGFR and Total EGFR (using L858R-specific detection antibody and pan-EGFR antibody for EGFR mutant cell lines and EGFR wild-type cell lines, respectively) HTRF assay kits were purchased from Cisbio (Bedford, MA, USA).
Degradation of EGFR protein containing L858R mutation or wild-type was determined based on quantification of FRET signal using a Total EGFR (L858R-specific or pan-EGFR detecting) HTRF assay kit. Phospho-EGFR (pEGFR) inhibition was determined based on quantification of FRET signal using a pY1068 EGFR HTRF assay kit. In separate assay plates, test compounds were added to the 384-well plate from a top concentration of 10 μM with 11 points, half log titration in duplicates. For each assay, 12.5 uL of cells suspended in assay media (RPMI 1640 no-phenol red medium+10% FBS) at cell densities indicated for each cell line in Table 8 below were dispensed using a multi-channel pipette to 384-well low volume white HTRF microplates containing a duplicate concentration range of test compounds and DMSO controls. The plates were kept at 37° C. with 5% CO2 for 6 hours and then incubated with either phospho EGFR or Total EGFR HTRF detection antibodies according to the cell line and EGFR mutant being assayed. Cells treated in the absence of the test compound were the negative control. Positive control was set by wells containing all reagents but no cells. FRET signal was acquired on EnVision™ Multilabel Reader (PerkinElmer, Santa Clara, CA, USA). Compound concentration that achieves 50% degradation and inhibition was reported as DC50 and IC50, respectively.

Experiment [3] has as its target T2, EGFR L858R-T790M (Homo sapiens, UniProt P00533, L858R/T790M).
T2 construct: NCI-H1975 (harboring EGFR heterozygous L858R-T790M mutations); host or cells: NCI-H1975
In words: EGFR degradation, Total EGFR (L858R-specific) HTRF, NCI-H1975. As to conditions: Table 9A; NCI-H1975 cells, 6 hours, Total EGFR HTRF; read-out: H1975 EGFR DC50. The essentials:
as §1

Some results are limits rather than exact numbers.

T1 sequence (P00533 25-1210 T790M/C797S/L858R): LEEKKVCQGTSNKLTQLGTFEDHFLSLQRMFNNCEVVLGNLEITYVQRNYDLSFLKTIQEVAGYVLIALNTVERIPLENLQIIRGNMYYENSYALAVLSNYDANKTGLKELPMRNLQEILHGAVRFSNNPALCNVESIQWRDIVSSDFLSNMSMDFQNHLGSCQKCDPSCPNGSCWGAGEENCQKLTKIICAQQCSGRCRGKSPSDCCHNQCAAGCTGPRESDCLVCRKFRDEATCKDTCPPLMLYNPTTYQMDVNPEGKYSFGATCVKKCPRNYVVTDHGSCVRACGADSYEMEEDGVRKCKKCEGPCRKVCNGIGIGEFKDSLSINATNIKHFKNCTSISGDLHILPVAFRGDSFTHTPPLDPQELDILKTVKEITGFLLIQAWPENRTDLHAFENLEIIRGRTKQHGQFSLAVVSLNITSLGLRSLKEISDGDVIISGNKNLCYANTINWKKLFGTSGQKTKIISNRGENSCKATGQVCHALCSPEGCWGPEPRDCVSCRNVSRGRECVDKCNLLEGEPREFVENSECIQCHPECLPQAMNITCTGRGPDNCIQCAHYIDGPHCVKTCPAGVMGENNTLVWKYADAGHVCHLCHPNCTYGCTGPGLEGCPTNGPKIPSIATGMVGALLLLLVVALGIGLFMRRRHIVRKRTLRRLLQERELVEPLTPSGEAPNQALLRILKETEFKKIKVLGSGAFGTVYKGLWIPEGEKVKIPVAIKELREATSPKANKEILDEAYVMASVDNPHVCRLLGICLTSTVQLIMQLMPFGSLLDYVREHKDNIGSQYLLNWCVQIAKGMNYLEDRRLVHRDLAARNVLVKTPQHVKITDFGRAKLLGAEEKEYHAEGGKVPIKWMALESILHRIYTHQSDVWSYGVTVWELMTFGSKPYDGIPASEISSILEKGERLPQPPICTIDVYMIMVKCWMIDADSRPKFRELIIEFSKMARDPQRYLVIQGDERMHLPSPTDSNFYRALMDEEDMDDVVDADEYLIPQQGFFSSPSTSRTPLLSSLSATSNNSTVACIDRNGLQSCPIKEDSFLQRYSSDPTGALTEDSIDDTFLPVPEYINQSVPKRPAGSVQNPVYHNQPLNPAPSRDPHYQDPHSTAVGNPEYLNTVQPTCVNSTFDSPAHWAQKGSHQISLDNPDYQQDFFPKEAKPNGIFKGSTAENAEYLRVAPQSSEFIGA
Sequence of EGFR L858R (P00533 25-1210 L858R): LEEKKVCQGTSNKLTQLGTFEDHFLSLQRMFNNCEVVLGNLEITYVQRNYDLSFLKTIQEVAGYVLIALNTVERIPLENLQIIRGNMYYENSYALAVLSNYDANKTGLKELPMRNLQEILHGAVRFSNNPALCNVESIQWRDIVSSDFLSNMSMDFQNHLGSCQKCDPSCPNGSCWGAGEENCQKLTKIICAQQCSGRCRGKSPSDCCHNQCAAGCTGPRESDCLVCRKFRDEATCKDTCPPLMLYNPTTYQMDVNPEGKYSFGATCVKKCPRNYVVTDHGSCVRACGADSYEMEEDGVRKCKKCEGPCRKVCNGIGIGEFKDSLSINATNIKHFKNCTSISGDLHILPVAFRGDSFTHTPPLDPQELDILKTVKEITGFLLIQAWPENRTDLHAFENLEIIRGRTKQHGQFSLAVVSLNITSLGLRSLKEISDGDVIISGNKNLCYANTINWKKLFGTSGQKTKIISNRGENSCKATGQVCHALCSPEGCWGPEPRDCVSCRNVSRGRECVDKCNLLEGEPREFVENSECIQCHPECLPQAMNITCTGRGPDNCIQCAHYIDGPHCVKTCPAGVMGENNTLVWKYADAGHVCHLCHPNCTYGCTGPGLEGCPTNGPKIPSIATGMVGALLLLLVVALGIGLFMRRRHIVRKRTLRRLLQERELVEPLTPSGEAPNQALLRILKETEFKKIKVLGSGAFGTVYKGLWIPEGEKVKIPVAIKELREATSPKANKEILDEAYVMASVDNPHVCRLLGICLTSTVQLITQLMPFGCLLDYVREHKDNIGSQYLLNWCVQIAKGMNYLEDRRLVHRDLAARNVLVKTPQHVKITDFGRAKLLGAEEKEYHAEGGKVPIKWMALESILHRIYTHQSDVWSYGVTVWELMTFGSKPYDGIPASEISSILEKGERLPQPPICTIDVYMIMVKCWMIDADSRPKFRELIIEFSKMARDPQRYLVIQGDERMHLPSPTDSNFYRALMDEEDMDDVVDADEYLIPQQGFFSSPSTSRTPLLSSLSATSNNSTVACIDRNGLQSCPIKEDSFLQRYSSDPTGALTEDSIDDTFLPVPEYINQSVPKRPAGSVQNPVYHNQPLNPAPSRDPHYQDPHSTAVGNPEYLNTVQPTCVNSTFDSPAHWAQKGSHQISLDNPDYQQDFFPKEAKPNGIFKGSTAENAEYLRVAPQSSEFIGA
T2 sequence (P00533 25-1210 T790M/L858R): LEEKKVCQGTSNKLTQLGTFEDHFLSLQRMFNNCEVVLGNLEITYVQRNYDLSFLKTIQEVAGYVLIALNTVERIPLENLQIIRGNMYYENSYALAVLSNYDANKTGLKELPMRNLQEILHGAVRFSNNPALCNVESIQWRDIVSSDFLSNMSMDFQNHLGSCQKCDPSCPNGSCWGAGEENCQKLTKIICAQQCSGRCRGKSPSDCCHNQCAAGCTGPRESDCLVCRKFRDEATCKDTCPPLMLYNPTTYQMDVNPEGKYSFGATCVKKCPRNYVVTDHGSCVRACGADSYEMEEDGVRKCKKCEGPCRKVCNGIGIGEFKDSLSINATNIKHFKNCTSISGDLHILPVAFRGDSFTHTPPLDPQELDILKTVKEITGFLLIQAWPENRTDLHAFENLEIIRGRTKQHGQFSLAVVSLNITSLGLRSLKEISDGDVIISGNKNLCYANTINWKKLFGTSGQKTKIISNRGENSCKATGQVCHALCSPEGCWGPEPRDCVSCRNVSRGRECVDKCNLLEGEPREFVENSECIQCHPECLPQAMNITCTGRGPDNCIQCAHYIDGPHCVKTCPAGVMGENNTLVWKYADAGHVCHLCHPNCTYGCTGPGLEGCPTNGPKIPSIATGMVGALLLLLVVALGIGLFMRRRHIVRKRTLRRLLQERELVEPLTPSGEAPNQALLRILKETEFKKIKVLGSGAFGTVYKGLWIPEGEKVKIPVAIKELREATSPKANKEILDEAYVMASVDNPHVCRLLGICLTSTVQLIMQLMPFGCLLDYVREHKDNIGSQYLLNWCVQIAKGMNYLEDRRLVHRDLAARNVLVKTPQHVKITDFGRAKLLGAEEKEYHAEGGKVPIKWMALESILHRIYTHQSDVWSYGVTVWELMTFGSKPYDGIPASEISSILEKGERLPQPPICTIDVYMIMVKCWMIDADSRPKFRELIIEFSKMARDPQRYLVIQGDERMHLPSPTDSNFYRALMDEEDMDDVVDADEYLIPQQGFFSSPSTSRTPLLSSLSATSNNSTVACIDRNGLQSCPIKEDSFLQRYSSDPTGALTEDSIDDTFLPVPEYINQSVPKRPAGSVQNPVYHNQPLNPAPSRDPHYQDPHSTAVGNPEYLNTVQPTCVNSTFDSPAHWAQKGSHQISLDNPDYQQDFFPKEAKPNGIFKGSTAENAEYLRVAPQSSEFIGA

`N#Cc1cc(NC2CCC(=O)NC2=O)ccc1C1CCN(CC(=O)N2CCC(c3ccc(-c4cc(F)c5c(c4)C(=O)N(C(C(=O)Nc4nccs4)c4ncn6c4CCC6)C5)cc3)CC2)CC1` (stereo not drawn) [Compound 25, 2-(6-(4-(1-(2-(4-(2-cyano-4-((2,6-dioxopiperidin-3-yl)amino)phenyl)piperidin-1-yl)acetyl)piperidin-4-yl)phenyl)-4-fluoro-1-oxoisoindolin-2-yl)-2-(6,7-dihydro-5H-pyrrolo[1,2-c]imidazol-1-yl)-N-(thiazol-2-yl)acetamide]: the DC50 in experiment [1], in experiment [2] and in experiment [3] was less than 50 nM in each case.
As for `O=C1CC[C@H](Nc2ccc(C3CCN(CC(=O)N4CCC(Oc5ccc(-c6cc(F)c7c(c6)C(=O)N(C(C(=O)Nc6nccs6)c6ncn8c6CCC8)C7)cc5)CC4)CC3)cc2)C(=O)N1` (stereo partly drawn) [Compound 32, 2-(6,7-dihydro-5H-pyrrolo[1,2-c]imidazol-1-yl)-2-[6-[4-[[1-[2-[4-[4-[[(3S)-2,6-dioxo-3-piperidyl]amino]phenyl]-1-piperidyl]acetyl]-4-piperidyl]oxy]phenyl]-4-fluoro-1-oxo-isoindolin-2-yl]-N-thiazol-2-yl-acetamide], the DC50 in experiment [1], in experiment [2] and in experiment [3] was less than 50 nM throughout.
Take `O=C1CC[C@@H](Nc2ccc(C3CCN(CC(=O)N4CCC(Oc5ccc(-c6cc(F)c7c(c6)C(=O)N(C(C(=O)Nc6nccs6)c6ncn8c6CCC8)C7)cc5)CC4)CC3)cc2)C(=O)N1` (stereo partly drawn) [Compound 33, 2-(6,7-dihydro-5H-pyrrolo[1,2-c]imidazol-1-yl)-2-[6-[4-[[1-[2-[4-[4-[[(3R)-2,6-dioxo-3-piperidyl]amino]phenyl]-1-piperidyl]acetyl]-4-piperidyl]oxy]phenyl]-4-fluoro-1-oxo-isoindolin-2-yl]-N-thiazol-2-yl-acetamide]: the DC50 in experiment [1], in experiment [2] and in experiment [3] was less than 50 nM each time.
Regarding `O=C1CCC(Nc2ccc(C3CCN(CC(=O)N4CCC(Oc5ccc(-c6cc(F)c7c(c6)C(=O)N(C(C(=O)Nc6nccs6)c6ncn8c6CCC8)C7)cc5)CC4)CC3)cc2F)C(=O)N1` (stereo not drawn) [Compound 34, 2-(6,7-dihydro-5H-pyrrolo[1,2-c]imidazol-1-yl)-2-(6-(4-((1-(2-(4-(4-((2,6-dioxopiperidin-3-yl)amino)-3-fluorophenyl)piperidin-1-yl)acetyl)piperidin-4-yl)oxy)phenyl)-4-fluoro-1-oxoisoindolin-2-yl)-N-(thiazol-2-yl)acetamide], the figures for the DC50 in experiment [1], in experiment [2] and in experiment [3] were less than 50 nM, less than 50 nM and 50 to 150 nM, respectively.
With `O=C1CCC(Nc2ccc(C3CCN(CC(=O)N4CCC(Oc5ccc(-c6cc(F)c7c(c6)C(=O)N(C(C(=O)Nc6nccs6)c6ncn8c6CCC8)C7)cc5)CC4)CC3)c(F)c2)C(=O)N1` (stereo not drawn) [Compound 35, 2-(6,7-dihydro-5H-pyrrolo[1,2-c]imidazol-1-yl)-2-(6-(4-((1-(2-(4-(4-((2,6-dioxopiperidin-3-yl)amino)-2-fluorophenyl)piperidin-1-yl)acetyl)piperidin-4-yl)oxy)phenyl)-4-fluoro-1-oxoisoindolin-2-yl)-N-(thiazol-2-yl)acetamide], the DC50 in experiment [1], in experiment [2] and in experiment [3] was less than 50 nM each time.
With `N#Cc1cc(NC2CCC(=O)NC2=O)ccc1C1CCN(CC(=O)N2CCC(Oc3ccc(-c4cc(F)c5c(c4)C(=O)N(C(C(=O)Nc4nccs4)c4ncn6c4CCC6)C5)cc3)CC2)CC1` (stereo not drawn) [Compound 37], the DC50 in experiment [1], in experiment [2] and in experiment [3] was less than 50 nM throughout.
Consider `O=C1CC[C@H](Nc2ccc(C3CCN(CC(=O)N4CCN(c5ccc(-c6cc(F)c7c(c6)C(=O)N(C(C(=O)Nc6nccs6)c6ncn8c6C[C@@H](F)C8)C7)cc5)CC4)CC3)c(F)c2)C(=O)N1` (stereo partly drawn) [Compound 44, 2-[6-[4-[4-[2-[4-[4-[[(3S)-2,6-dioxo-3-piperidyl]amino]-2-fluoro-phenyl]-1-piperidyl]acetyl]piperazin-1-yl]phenyl]-4-fluoro-1-oxo-isoindolin-2-yl]-2-[(6R)-6-fluoro-6,7-dihydro-5H-pyrrolo[1,2-c]imidazol-1-yl]-N-thiazol-2-yl-acetamide], for which the DC50 in experiment [1], in experiment [2] and in experiment [3] was less than 50 nM each time.
With `O=C1CCC(Nc2ccc(C3CCN(CC(=O)N4CC5(C4)CN(c4ccc(-c6cc(F)c7c(c6)C(=O)N(C(C(=O)Nc6nccs6)c6ncn8c6CCC8)C7)cc4)C5)CC3)cc2)C(=O)N1` (stereo not drawn) [Compound 47, 2-(6,7-dihydro-5H-pyrrolo[1,2-c]imidazol-1-yl)-2-[6-[4-[2-[2-[4-[4-[(2,6-dioxo-3-piperidyl)amino]phenyl]-1-piperidyl]acetyl]-2,6-diazaspiro[3.3]heptan-6-yl]phenyl]-4-fluoro-1-oxo-isoindolin-2-yl]-N-thiazol-2-yl-acetamide], the DC50 in experiment [1], in experiment [2] and in experiment [3] was less than 50 nM each time.
For the compound `O=C1CC[C@H](Nc2ccc(C3CCN(CC(=O)N4CC5(C4)CN(c4ccc(-c6cc(F)c7c(c6)C(=O)N(C(C(=O)Nc6nccs6)c6ncn8c6CCC8)C7)cc4)C5)CC3)c(F)c2)C(=O)N1` (stereo partly drawn) [Compound 48, 2-(6,7-dihydro-5H-pyrrolo[1,2-c]imidazol-1-yl)-2-[6-[4-[2-[2-[4-[4-[[(3S)-2,6-dioxo-3-piperidyl]amino]-2-fluoro-phenyl]-1-piperidyl]acetyl]-2,6-diazaspiro[3.3]heptan-6-yl]phenyl]-4-fluoro-1-oxo-isoindolin-2-yl]-N-thiazol-2-yl-acetamide], the DC50 in experiment [1], in experiment [2] and in experiment [3] was less than 50 nM in each case.
In the case of `O=C1CCC(Nc2ccc(C3CCN(CC(=O)N4CCN(c5ccc(-c6cc(F)c7c(c6)C(=O)N(C(C(=O)Nc6nccs6)c6ncn8c6CCC8)C7)cc5)CC4)CC3)cc2)C(=O)N1` (stereo not drawn) [Compound 55, 2-(6,7-dihydro-5H-pyrrolo[1,2-c]imidazol-1-yl)-2-[6-[4-[4-[2-[4-[4-[(2,6-dioxo-3-piperidyl)amino]phenyl]-1-piperidyl]acetyl]piperazin-1-yl]phenyl]-4-fluoro-1-oxo-isoindolin-2-yl]-N-thiazol-2-yl-acetamide], the DC50 in experiment [1], in experiment [2] and in experiment [3] was less than 50 nM each time.
Consider `O=C1CC[C@H](Nc2ccc(C3CCN(CC(=O)N4CCN(c5ccc(-c6cc(F)c7c(c6)C(=O)N(C(C(=O)Nc6nccs6)c6ncn8c6CCC8)C7)cc5)CC4)CC3)cc2)C(=O)N1` (stereo partly drawn) [Compound 56, 2-(6,7-dihydro-5H-pyrrolo[1,2-c]imidazol-1-yl)-2-[6-[4-[4-[2-[4-[4-[[(3S)-2,6-dioxo-3-piperidyl]amino]phenyl]-1-piperidyl]acetyl]piperazin-1-yl]phenyl]-4-fluoro-1-oxo-isoindolin-2-yl]-N-thiazol-2-yl-acetamide], for which the DC50 in experiment [1], in experiment [2] and in experiment [3] was less than 50 nM each time.
Consider `O=C1CCC(Nc2ccc(C3CCN(CC(=O)N4CCN(Cc5ccc(-c6cc(F)c7c(c6)C(=O)N(C(C(=O)Nc6nccs6)c6ncn8c6CCC8)C7)cc5)CC4)CC3)c(F)c2)C(=O)N1` (stereo not drawn) [Compound 57, 2-(6,7-dihydro-5H-pyrrolo[1,2-c]imidazol-1-yl)-2-[6-[4-[[4-[2-[4-[4-[(2,6-dioxo-3-piperidyl)amino]-2-fluoro-phenyl]-1-piperidyl]acetyl]piperazin-1-yl]methyl]phenyl]-4-fluoro-1-oxo-isoindolin-2-yl]-N-thiazol-2-yl-acetamide], for which the DC50 in experiment [1], in experiment [2] and in experiment [3] was less than 50 nM throughout.
